Measured values taken from patent publication US20220304951A1, “ANTICANCER COMPOSITIONS AND METHODS FOR USING SAME” (Lispiro LLC, priority 2021, published 2022).

What was measured:
Assay type in all cases: cell-based
[1] = system: normal human epithelial like cells (CRL-1790); assay: New fuchsine treatment of normal human epithelial like cells, H&E staining, light microscopy (Example 1); conditions: all tested concentrations (25, 50, 100, 150 uM), 48 hours, H&E stain
Experimental: (§1) 4 flasks Thermo Scientific Nunc Nunclon Delta Surface 12.5 cm (Cat.No136196) with McCoy's5A complete medium were seeded with cell culture of CRL1790 (ATCC) and 4 flasks Thermo Scientific Nunc Nunclon Delta Surface 12.5 cm (Cat.No136196) with McCoy's5A complete medium were seeded with cell culture of HT29 (ATCC) and were kept at 37 degrees 5% CO2 in CO2 incubator until it reached of 70% confluence (2 days). After reaching of 70% confluence flasks McCoy's5A medium with 10% of FBS was changed to the same medium with different concertation of new fuchsine (0 uM, 25 uM, 50 uM, 100 uM, 150 uM) (Sigma Cat. No 72200). Flasks were kept in the CO2 incubator 5% CO2, 37-degree C for additional 48 hours. After 48 hours of treatment all flasks were stained by fixed by 10% Formaldehyde and stained by H&E. After completing of the staining protocol the flasks were examined in the light microscope under magnification x100 and multiple pictures were taken using Olympus BX51 microscope and Olympus DP73 digital camera.

[2] = system: Human colon carcinoma cells (HT29); assay: New fuchsine treatment of human colon carcinoma cells, H&E staining, light microscopy (Example 1); conditions: 48 hours, H&E stain
Experimental: as §1

[3] = system: normal human epithelial like cells (CRL-1790); assay: New fuchsine treatment of normal human epithelial like cells, H&E staining, light microscopy (Example 2); conditions: all tested concentrations (50 uM), 12 hours, H&E stain
Experimental: (§2) 2 flasks Thermo Scientific Nunc Nunclon Delta Surface 12.5 cm (Cat. No 136196) with McCoy's5A complete medium were seeded with cell culture of CRL1790 (ATCC) and 2 flasks Thermo Scientific Nunc Nunclon Delta Surface 12.5 cm (Cat. No 136196) with DMEM complete medium were seeded with cell culture of HT1080 (ATCC) and were kept at 37 degrees 5% CO2 in CO2 incubator until it reached of 100% confluence (2 days). After reaching of 100% confluence medium with 10% of FBS was changed to the same medium with different concertation of New Fuchsin (0 uM, and 50 uM) (Sigma Cat. No 72200). Flasks were kept in the CO2 incubator 5% CO2, 37-degree C for additional 12 hours. After 12 hours of treatment all flasks were stained by fixed by 10% Formaldehyde and stained by H&E. After completing of the staining protocol the flasks were examined in the light microscope under magnification x100 and multiple pictures were taken using Olympus BX51 microscope and Olympus DP73 digital camera.

[4] = system: Fibrosarcoma cells (HT-1080); assay: New fuchsine treatment of human fibrosarcoma cells, H&E staining, light microscopy (Example 2); conditions: new fuchsine 50 uM, 12 hours, H&E stain; corresponds to empty plastic
Experimental: as §2

[5] = system: Human Cervical carcinoma cell line (HeLa); assay: New fuchsine treatment of HeLa cells, Trypan blue, automatic cell counter (Example 3)
Experimental: (§3) Hela cells were growing in incubator at 37 degrees C. and 5% CO2 until 70% confluence was reached. After reaching of 70% confluence, medium was changed to medium with different concentrations of new fuchsine (0 μM, 15 μM, 31 μM, 62 μM, 125 μM and 250 μM). Flasks were kept in the CO2 incubator (5% CO2, 37-degree C) for additional 24 hours. After 24 hours of treatment, cells were detached with Trypsin, washed with fresh medium and stained with Trypan blue. Number of cells and viability were examined in automatic cell counter (Invitrogen).

[6] = system: human colon adenocarcinoma cells (HT29); assay: New fuchsine treatment of HT29 cells, Trypan blue, automatic cell counter (Example 4)
Experimental: as §3, with “The general study methods of study were as follows: HT29 cells” for “Hela cells”, “were grown” for “were growing”, “different concentration” for “different concentrations”, “of treatment” for “of treatment,”, “blue. Cell” for “blue. Number of cells and”, “viability was” for “viability were”

[7] = new fuchsine 250 uM, 24 hours, Trypan blue

## CC1=CC(=C(c2ccc(N)c(C)c2)c2ccc(N)c(C)c2)C=CC1=N.Cl [new fuchsine, [4-[bis(4-amino-3-methylphenyl)methylidene]-2-methylcyclohexa-2,5-dien-1-ylidene]azanium; chloride]
[1]
  visual toxicity to normal human epithelial like cells (CRL-1790): did not exhibit any visual toxicity
[2]
  concentration at which first signs of toxicity to colon carcinoma cells (HT29) can be seen: 50 µM
[2]; new fuchsine 150 uM, corresponds to empty plastic
  toxicity to carcinoma cells (HT29): 100%
[3]
  visual toxicity to normal human epithelial like cells (CRL-1790): did not exhibit any visual toxicity
[4]
  toxicity to Fibrosarcoma cells (HT-1080): 100%
[5]; all tested concentrations (15, 31, 62, 125, 250 μM), 24 hours, Trypan blue viability and cell count
  toxicity to human carcinoma cells (HeLa): exhibited toxicity
[5]; [7]
  toxicity to carcinoma cells (HeLa): 100%
[5]; summary of the examples
  cytotoxic effect on cervical carcinoma (HeLa cells), summary: high efficacy, dose dependent cytotoxic effect
[6]; all tested concentrations (15, 31, 62, 125, 250 μM), 24 hours, Trypan blue viability
  toxicity to human colon adenocarcinoma cells (HT29): did exhibit toxicity
[6]; [7]
  toxicity to colon adenocarcinoma cells (HT29): < 100%
[6]; summary of the examples
  efficacy for colon carcinoma (HT29 cells) compared with cervical carcinoma (HeLa cells), summary: much less effective
